From PubChem BioAssay (NCI)
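In this assay, cells in 96-well plates receive the compound at five concentrations for 48 hours. Endpoints are linearly interpolated between the surrounding concentrations. Abbreviation: GI50, concentration required for 50% inhibition of growth. Definition used: TGI = concentration required for complete inhibition of growth.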

How the values were obtained:
Experiment in all cases: DTP human tumour cell line panel, 48 h
[1] = system: HCT-116 colon
[2] = system: KM12 colon
[3] = system: ACHN renal
[4] = system: SF-539 CNS
[5] = system: HOP-62 NSCLC
[6] = system: MDA-MB-435
[7] = system: OVCAR-8 ovarian
[8] = system: LOX IMVI melanoma
[9] = system: IGROV1 ovarian
[10] = system: HCT-15 colon
[11] = system: A498 renal
[12] = system: RXF 393 renal
[13] = system: UO-31 renal
[14] = system: NCI-H460 lung
[15] = system: HS 578T breast
[16] = system: K-562 leukemia
[17] = system: HOP-92 NSCLC
[18] = system: SK-OV-3 ovarian
[19] = system: M14 melanoma
[20] = system: HT29 colon
[21] = system: MOLT-4 leukemia
[22] = system: T-47D breast
[23] = system: CAKI-1 renal
[24] = system: CCRF-CEM leukemia
[25] = system: MALME-3M melanoma
[26] = system: SNB-19 CNS
[27] = system: SK-MEL-2 melanoma
[28] = system: HL-60(TB) leukemia
[29] = system: RPMI-8226 leukemia
[30] = system: COLO 205 colon
[31] = system: OVCAR-3 ovarian
[32] = system: MDA-MB-231 breast
[33] = system: UACC-257 melanoma
[34] = system: OVCAR-4 ovarian
[35] = system: HCC-2998 colon
[36] = system: PC-3 prostate
[37] = system: SK-MEL-28 melanoma
[38] = system: UACC-62 melanoma
[39] = system: NCI/ADR-RES ovarian
[40] = system: DU-145 prostate
[41] = system: SW-620 colon
[42] = system: SN12C renal
[43] = system: EKVX NSCLC
[44] = system: OVCAR-5 ovarian
[45] = system: A549 NSCLC
[46] = system: SR leukemia
[47] = system: MCF7 breast
[48] = system: 786-0 renal
[49] = system: SK-MEL-5 melanoma
[50] = system: NCI-H23 lung
[51] = system: SF-268 CNS
[52] = system: NCI-H226 lung
[53] = system: TK-10 renal
[54] = system: BT-549 breast
[55] = system: U251 CNS
[56] = system: SNB-75 CNS
[57] = system: SF-295 CNS

SMILES: C=CCc1cccc(/C=N/NC(=O)CN2CCN(Cc3ccccc3)CC2)c1O
- GI50 [1]: 1710 nM
- TGI [1]: 13800 nM
- GI50 [2]: 2560 nM
- TGI [2]: 15000 nM
- GI50 [3]: 1540 nM
- TGI [3]: 12000 nM
- GI50 [4]: 2320 nM
- TGI [4]: 9490 nM
- GI50 [5]: 2250 nM
- TGI [5]: 13800 nM
- GI50 [6]: 2860 nM
- TGI [6]: 13300 nM
- GI50 [7]: 2080 nM
- TGI [7]: 17600 nM
- GI50 [8]: 1050 nM
- TGI [8]: 6590 nM
- GI50 [9]: 483 nM
- TGI [9]: 3130 nM
- GI50 [10]: 693 nM
- TGI [10]: 15100 nM
- GI50 [11]: 4860 nM
- TGI [11]: 18200 nM
- GI50 [12]: 638 nM
- TGI [12]: 16100 nM
- GI50 [13]: 1150 nM
- TGI [13]: 7380 nM
- GI50 [14]: 1410 nM
- TGI [14]: 11600 nM
- GI50 [15]: 5630 nM
- TGI [15]: 23100 nM
- GI50 [16]: 1870 nM
- TGI [16]: 11000 nM
- GI50 [17]: 1280 nM
- TGI [17]: 6220 nM
- GI50 [18]: 2880 nM
- TGI [18]: 17800 nM
- GI50 [19]: 1840 nM
- TGI [19]: 13300 nM
- GI50 [20]: 3240 nM
- TGI [20]: 13700 nM
- GI50 [21]: 1120 nM
- TGI [21]: 5640 nM
- GI50 [22]: 2320 nM
- TGI [22]: 14900 nM
- GI50 [23]: 841 nM
- TGI [23]: 2120 nM
- GI50 [24]: 656 nM
- TGI [24]: 7780 nM
- GI50 [25]: 5790 nM
- TGI [25]: 19800 nM
- GI50 [26]: 5360 nM
- TGI [26]: 20100 nM
- GI50 [27]: 2310 nM
- TGI [27]: 11500 nM
- GI50 [28]: 1600 nM
- TGI [28]: 4790 nM
- GI50 [29]: 1470 nM
- TGI [29]: 12700 nM
- GI50 [30]: 2220 nM
- TGI [30]: 13900 nM
- GI50 [31]: 808 nM
- TGI [31]: 6320 nM
- GI50 [32]: 2490 nM
- TGI [32]: 15500 nM
- GI50 [33]: 2460 nM
- TGI [33]: 13800 nM
- GI50 [34]: 1450 nM
- TGI [34]: 11800 nM
- GI50 [35]: 2740 nM
- TGI [35]: 17100 nM
- GI50 [36]: 3450 nM
- TGI [36]: 16100 nM
- GI50 [37]: 2430 nM
- TGI [37]: 15500 nM
- GI50 [38]: 3280 nM
- TGI [38]: 12800 nM
- GI50 [39]: 920 nM
- TGI [39]: 11900 nM
- GI50 [40]: 1790 nM
- TGI [40]: 13400 nM
- GI50 [41]: 3800 nM
- TGI [41]: 17100 nM
- GI50 [42]: 4400 nM
- TGI [42]: 18900 nM
- GI50 [43]: 2490 nM
- TGI [43]: 12800 nM
- GI50 [44]: 4460 nM
- TGI [44]: 18100 nM
- GI50 [45]: 3340 nM
- TGI [45]: 16400 nM
- GI50 [46]: 772 nM
- TGI [46]: 4240 nM
- GI50 [47]: 2520 nM
- TGI [47]: 12500 nM
- GI50 [48]: 2040 nM
- TGI [48]: 12100 nM
- GI50 [49]: 1260 nM
- TGI [49]: 3530 nM
- GI50 [50]: 3050 nM
- TGI [50]: 16500 nM
- GI50 [51]: 1990 nM
- TGI [51]: 16400 nM
- GI50 [52]: 2640 nM
- TGI [52]: 14000 nM
- GI50 [53]: 925 nM
- TGI [53]: 15100 nM
- GI50 [54]: 2840 nM
- TGI [54]: 15300 nM
- GI50 [55]: 2130 nM
- TGI [55]: 14900 nM
- GI50 [56]: 2570 nM
- TGI [56]: 12900 nM
- GI50 [57]: 649 nM
- TGI [57]: 4040 nM

SMILES: C[C@H]1[C@H](C)CC[C@]2(C(=O)OCCOCCOCC[P+](c3ccccc3)(c3ccccc3)c3ccccc3)CC[C@]3(C)C(=CC[C@@H]4[C@@]5(C)CC[C@H](OC(=O)C(Cl)Cl)C(C)(C)[C@@H]5CC[C@]43C)[C@H]12
- GI50 [3]: 540 nM
- TGI [3]: 1260 nM
- GI50 [15]: 202 nM
- TGI [15]: 3200 nM
- GI50 [24]: 227 nM
- TGI [24]: 1610 nM
- GI50 [28]: 161 nM
- TGI [28]: 804 nM
- GI50 [40]: 301 nM
- TGI [40]: 941 nM
- GI50 [41]: 234 nM
- TGI [41]: 955 nM

SMILES: C=Cc1c(C)c2cc3nc(cc4[nH]c(cc5nc(cc1[nH]2)C(C)=C5CCC(=O)O)c(CCC(=O)OC)c4C)[C@@]1(C)C3=CC=C(C(=O)OC)[C@H]1C(=O)OC
- GI50 [3]: 1340 nM
- TGI [3]: 2620 nM
- GI50 [4]: 1400 nM
- TGI [4]: 2700 nM
- GI50 [6]: 357 nM
- TGI [6]: 1340 nM
- GI50 [11]: 1190 nM
- TGI [11]: 2520 nM
- GI50 [12]: 1970 nM
- TGI [12]: 4470 nM
- GI50 [18]: 1850 nM
- TGI [18]: 3540 nM
- GI50 [21]: 388 nM
- TGI [21]: 1890 nM
- GI50 [22]: 1480 nM
- TGI [22]: 4530 nM
- GI50 [23]: 1170 nM
- TGI [23]: 2390 nM
- GI50 [24]: 829 nM
- TGI [24]: 3680 nM
- GI50 [28]: 2090 nM
- TGI [28]: 5700 nM
- GI50 [29]: 1270 nM
- TGI [29]: > 100000 nM
- GI50 [36]: 1430 nM
- TGI [36]: 6690 nM
- GI50 [37]: 1510 nM
- TGI [37]: 3000 nM
- GI50 [38]: 1370 nM
- TGI [38]: 2800 nM
- GI50 [43]: 2100 nM
- TGI [43]: 5380 nM
- GI50 [44]: 1590 nM
- TGI [44]: 3070 nM
- GI50 [49]: 1700 nM
- TGI [49]: 3150 nM
- GI50 [54]: 1240 nM
- TGI [54]: 2800 nM
- GI50 [56]: 846 nM
- TGI [56]: 2180 nM
